Where “and” joins values, the source holds several entries; their conditions need not be identical. Equal entries are not always repeated. Where two headings read alike, the source gives them in different places. Strand notation (5' to 3'): a small letter for the sugar, then the base; units joined by * are phosphorothioate-linked, units joined directly phosphodiester-linked; [ ] holds rarer units or linkages, { } end groups; capitals alone tell only the bases. d = 2'-deoxy (DNA)
What was measured:
HSV-2 = assay: HSV ELISA assay, HSV-2; type: cell-based
HSV1-McKrae = assay: HSV ELISA assay, strain HSV1-McKrae; type: cell-based, HSV-1
HSV1-F = assay: HSV ELISA assay, strain HSV1-F; type: cell-based, HSV-1
HSV1-PAAr = assay: microbe, parasite or virus in culture; type: cell-based, HSV-1
HSV1-DM2.1 = assay: microbe, parasite or virus in culture; type: cell-based, HSV-1
HSV-2 strain E194 = type: cell-based
HSV-1 (KOS) [1] = assay: HSV-1 infection ELISA assay; type: cell-based
HIV-1IIIB [2] = assay: Acute HIV infection assay (XTT, CEM cells); details: for IC50: inhibition of HIV
CEM cell line [3] = assay: Cytotoxicity (TC50) alongside acute HIV infection assay
HSV-1 (KOS) [4] = assay: HSV-1 virus yield assay; type: cell-based; details: for anti-HSV activity in virus yield assay: FIG. 2
CEM cell line [5] = tested on: CEM cell line
vaccinia virus = type: cell-based
[6] = biological target: Bovine pancreatic phospholipase A2 (Bos taurus, UniProt P00593)
[7] = biological target: T1, human type II phospholipase A2 (Homo sapiens, UniProt P14555); assay: Human type II phospholipase A2 enzyme assay (3H-oleic acid labelled E. coli substrate); type: biochemical
T1 sequence (P14555 21-144): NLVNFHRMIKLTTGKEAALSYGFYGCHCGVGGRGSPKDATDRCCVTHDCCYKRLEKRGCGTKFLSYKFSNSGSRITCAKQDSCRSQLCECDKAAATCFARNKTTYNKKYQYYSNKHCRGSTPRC

[8] = tested on: Crotalus durissus terrificus phospholipase A2
[9] = biological target: Apis mellifera phospholipase A2 (Apis mellifera, UniProt P00630)
[10] = tested on: Phospholipase A2 isolated from the venom of Trimeresurus flavoridis; assay: Phospholipase A2 enzyme assay, Trimeresurus flavoridis venom enzyme; type: biochemical
CD4/gp120 interaction = CD4/gp120 interaction (Human immunodeficiency virus type 1 group M subtype B, UniProt P03375); details: ELISA; Callahan et al.; cited from earlier work
HIV-1IIIB [11] = tested on: HIV-1IIIB
[12] = tested on: respiratory syncytial virus (RSV) strain Long; type: cell-based
[13] = tested on: rhinovirus 2 (R-2), strain HGP; type: cell-based, human rhinovirus
[14] = tested on: Adenovirus, Type 5 (A-5), strain Adenoid 75; type: cell-based
[15] = tested on: influenza strain A/NWS/33 (H1N1); type: cell-based, influenza virus
human cytomegalovirus = assay: Cytomegalovirus inhibition ELISA assay; type: cell-based; details: HCMV
HSV-1 (KOS) [16] = assay: Effect of time of oligonucleotide addition on HSV-1 inhibition (NHDF cells, ELISA); type: cell-based; set-up: dose or concentration left out as unconfirmed; details: added at the time of virus infection (t=0)
[17] = 50% inhibition of HSV replication relative to control infected cells, Table 1
[18] = 1 μM, Table 5, two separate experiments

Chain of Bovine pancreatic phospholipase A2 (P00593 23-145): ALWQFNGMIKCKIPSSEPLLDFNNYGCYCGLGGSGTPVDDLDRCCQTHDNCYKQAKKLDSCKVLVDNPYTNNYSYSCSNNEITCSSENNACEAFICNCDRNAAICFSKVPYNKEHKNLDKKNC

Nc1nc2c(ncn2COCCO)c(=O)[nH]1 [ACV, 9-(2-hydroxyethoxymethyl)guanine]
EC50 (HSV-2; Human alphaherpesvirus 2): 2000 nM
EC50 (HSV1-McKrae; Human alphaherpesvirus 1): 1800 nM
EC50 (HSV1-F; Human alphaherpesvirus 1): 700 nM
EC50 (HSV1-PAAr; Human alphaherpesvirus 1): > 3000 nM
EC50 (HSV1-DM2.1; Human alphaherpesvirus 1): > 3000 nM
ED50 (HSV-2 strain E194): 97.7 µM

ISIS 4721: CAC GGG GTC G, P = S, SEQ ID NO 32 (CACGGGGTCG; all phosphorothioate, sugars by position and methylation of C not given here)
EC50 (HSV-1 (KOS) [1]; [17]): 400 nM
TI (TC50/IC50) (HIV-1IIIB [2]): 546
IC50 (HIV-1IIIB [2]): 210 nM and 260 nM
TC50 (CEM cell line [3]): 142 µM

ISIS 5653: TT GGGG TT GGGG TT GGGG, P = S, SEQ ID NO 38 (TTGGGGTTGGGGTTGGGG; all phosphorothioate, sugars by position not given here)
anti-HSV activity in virus yield assay (HSV-1 (KOS) [4]): dose-dependent anti-HSV activity
EC50 (HSV-1 (KOS) [1]; [17]): 200 nM
TC50 (CEM cell line [5]): 27 µM
IC50 (HIV-1IIIB [2]): 120 nM

ISIS 5667: TT GGGG TT GGGG TT, P = O, SEQ ID NO 56 (TTGGGGTTGGGGTT; all phosphodiester, sugars by position not given here)
TC50 (CEM cell line [5]): 5.6 µM
IC50 (HIV-1IIIB [2]): > 22000 nM

ISIS 4897: CAC GGG GTC GCC GAT, P = S, SEQ ID NO 31 (CACGGGGTCGCCGAT; all phosphorothioate, sugars by position and methylation of C not given here)
EC50 (HSV-1 (KOS) [1]; [17]): 130 nM
IC50 (HIV-1IIIB [2]): 430 nM

Nc1ncnc2c1ncn2[C@@H]1O[C@H](CO)[C@@H](O)[C@@H]1O [Ara-A, 9-(β-D-arabinofuranosyl)adenine]
ED50 (vaccinia virus; Vacc): 15.8 µM

ISIS 3196: GGG T GGG T ATA G AAG G GCT CC, P = S, SEQ ID NO 47 (GGGTGGGTATAGAAGGGCTCC; all phosphorothioate, sugars by position and methylation of C not given here)
IC50 [6]: ~100 µM
EC50 (HSV-1 (KOS) [1]; [17]): 200 nM
inhibition of human type II phospholipase A2 ([7]; 1 μM): completely inhibited
% Inhibition (1 μM) ([7]; 1 μM, Table 4): 98.5%
% Inhibition (1 μM) [7, 18]: 100% and 76.2%
IC50 ([7]; FIG. 5): ~150 nM
effect on substrate kinetics ([7]; increasing E. coli substrate, ISIS 3481 at 0.2 μM and 2 μM): apparent noncompetitive inhibitor
inhibitory activity (% inhibition) ([7]; not boiled): 94%
inhibitory activity (% inhibition) ([7]; placed in boiling water for 15 minutes prior to assay): 21%
IC50 [8]: ~300 nM
IC50 [9]: > 100 µM
IC50 [10]: > 10 µM

ISIS 5590: GGGG TT GGGG, P = O, SEQ ID NO 46 (GGGGTTGGGG; all phosphodiester, sugars by position not given here)
EC50 (HSV-1 (KOS) [1]; [17]): > 3000 nM
TC50 (CEM cell line [5]): 20 µM
IC50 (HIV-1IIIB [2]): > 25000 nM

Dextran sulfate
effect on the gp120/CD4 interaction (CD4/gp120 interaction): does not prevent the gp120/CD4 interaction

ISIS 5651: TT GGGG TT GGGG TT GGGG TT GGGG, P = S, SEQ ID NO 35 (TTGGGGTTGGGGTTGGGGTTGGGG; all phosphorothioate, sugars by position not given here)
anti-HSV activity in virus yield assay (HSV-1 (KOS) [4]): dose-dependent anti-HSV activity
antiviral activity in virus yield assay (HSV-1 (KOS) [4]; dose of 3 mM, FIG. 1): greater antiviral activity than did Acyclovir
EC50 (HSV-1 (KOS) [1]; [17]): 170 nM
TI (TC50/IC50) (HIV-1IIIB [11]): 175
IC50 (HIV-1IIIB [2]): 100 nM and 180 nM

NC(=O)c1ncn([C@@H]2O[C@H](CO)[C@@H](O)[C@H]2O)n1 [Ribavirin]
ED50 [12]: 49 µM
ED50 [13]: 229 µM
ED50 [14]: 82 µM
ED50 [15]: 7.78 µM

ISIS 4560: GGGG C GGGG C GGGG C GGGG C G, P = S, SEQ ID NO 42 (dG*dG*dG*dG*dC*dG*dG*dG*dG*dC*dG*dG*dG*dG*dC*dG*dG*dG*dG*dC*dG)
IC50 (human cytomegalovirus): 150 nM
EC50 (HSV-1 (KOS) [1]; [17]): 180 nM
% Inhibition (1 μM) ([7]; 1 μM, Table 4): 100%
IC50 (HIV-1IIIB [2]): 140 nM

ISIS 5675: TT GGGG TT GGGG TT, P = S, SEQ ID NO 40 (TTGGGGTTGGGGTT; all phosphorothioate, sugars by position not given here)
EC50 (HSV-1 (KOS) [1]; [17]): 420 nM
TC50 (CEM cell line [5]): 14 µM
TI (TC50/IC50) (HIV-1IIIB [11]): 36
IC50 (HIV-1IIIB [2]): 380 nM

ISIS 5668: TT GGGG TT GGGG, P = O, SEQ ID NO 57 (TTGGGGTTGGGG; all phosphodiester, sugars by position not given here)
TC50 (CEM cell line [5]): 5.2 µM
IC50 (HIV-1IIIB [2]): > 21000 nM

ISIS 3383: scrambled version of ISIS 1082, SEQ ID NO: 122; negative control oligonucleotide (TGGGCACGTGCCTGACACGGC; chemistry not given here)
ED50 [12]: 0.7 µM
TI [12]: 60
ED50 (vaccinia virus): >100 µM
ED50 [13]: >100 µM
inhibition of HSV replication (HSV-1 (KOS) [16]): inhibited HSV replication
ED50 [14]: >100 µM
ED50 [15]: 19 µM
TI [15]: >5
ED50 (HSV-2 strain E194): 2.8 µM
TI (HSV-2 strain E194): >36

ISIS 5677: GGGG TT GGGG TT GGGG TT GGGG, P = S, SEQ ID NO 36 (GGGGTTGGGGTTGGGGTTGGGG; all phosphorothioate, sugars by position not given here)
EC50 (HSV-1 (KOS) [1]; [17]): 200 nM
TI (TC50/IC50) (HIV-1IIIB [11]): 146
IC50 (HIV-1IIIB [2]): 100 nM and 190 nM

ISIS 1082: GCCGAGGTCCATGTCGTACGC, SEQ ID NO 134; negative control, complementary to HSV UL13 translation initiation codon, no runs of G (dG*dC*dC*dG*dA*dG*dG*dT*dC*dC*dA*dT*dG*dT*dC*dG*dT*dA*dC*dG*dC)
EC50 (HSV-2): 2000 nM
EC50 (HSV-1 (KOS) [1]; HSV-1 (KOS strain), Table 9, some in duplicate): 2500 nM and 1800 nM
EC50 (HSV-1 (KOS) [1]; HSV-1 (KOS), Table 10): 2100 nM
EC50 (HSV1-McKrae): > 3000 nM
EC50 (HSV1-F): > 3000 nM
EC50 (HSV1-PAAr; HSV1-PAAr (resistant to ACV), read-out: EC50): > 3000 nM
EC50 (HSV1-DM2.1; HSV1-DM2.1 (resistant to ACV), read-out: EC50): > 3000 nM

ISIS 5676: GGGG TT GGGG TT GGGG, P = S, SEQ ID NO 39 (GGGGTTGGGGTTGGGG; all phosphorothioate, sugars by position not given here)
anti-HSV activity in virus yield assay (HSV-1 (KOS) [4]): dose-dependent anti-HSV activity
EC50 (HSV-1 (KOS) [1]; [17]): 230 nM
TI (TC50/IC50) (HIV-1IIIB [11]): 114
IC50 (HIV-1IIIB [2]): 180 nM and 280 nM

ISIS 5366: TTGGGGTTGGGGTTGGGGTTG GGGG, P = S, SEQ ID NO 33 (TTGGGGTTGGGGTTGGGGTTGGGGG; all phosphorothioate, sugars by position not given here)
IC50 (human cytomegalovirus): 100 nM
EC50 (HSV-1 (KOS) [1]; [17]): 160 nM
TC50 (CEM cell line [5]): 22 µM
TI (TC50/IC50) (HIV-1IIIB [11]): 220
IC50 (HIV-1IIIB [2]): 80 nM and 100 nM

ISIS 4672: GGG T GGG T ATA G, P = S, SEQ ID NO 50 (GGGTGGGTATAG; all phosphorothioate, sugars by position not given here)
EC50 (HSV-1 (KOS) [1]; [17]): 200 nM
% Inhibition (1 μM) [7, 18]: 73.9% and 94.6%

ISIS 4717: GG GGT TGG GG, P = S, SEQ ID NO 26 (GGGGTTGGGG; all phosphorothioate, sugars by position not given here)
IC50 (human cytomegalovirus): 1000 nM
EC50 (HSV-1 (KOS) [1]; [17]): 600 nM
% Inhibition (1 μM) [7, 18]: 83.1%
IC50 (HIV-1IIIB [2]): 410 nM

ISIS 4873: CAT GAC CGG GGC, P = S, SEQ ID NO 4 (CATGACCGGGGC; all phosphorothioate, sugars by position and methylation of C not given here)
EC50 (HSV-1 (KOS) [1]; [17]): 1400 nM and 1000 nM
IC50 (HIV-1IIIB [2]): 1000 nM

ISIS 5674: TT GGGG TT GGGG, P = S, SEQ ID NO 41 (TTGGGGTTGGGG; all phosphorothioate, sugars by position not given here)
EC50 (HSV-1 (KOS) [1]; [17]): 1500 nM
TC50 (CEM cell line [5]): >200 µM
IC50 (HIV-1IIIB [2]): 430 nM

ISIS 4882: CAT GGC GGG ACT ACG, P = S, SEQ ID NO 9 (CATGGCGGGACTACG; all phosphorothioate, sugars by position and methylation of C not given here)
EC50 (HSV-1 (KOS) [1]; [17]): 1700 nM and 1400 nM

Source: patent publication US20070015723A1, “Antiviral oligonucleotides having a conserved G4 core sequence” (priority 1992, published 2007)
